Results on one compound are retold here after patent US10899741B2, “3,4-bipyridyl pyrazole derivative, and preparation method therefor and medical application thereof” (Jiangsu Hengrui Medicine Co., Ltd., priority 2016, dated 2021).

Data set [1] concerns the target RIPK2 kinase (Homo sapiens (Human), UniProt O43353). The data set can be described thus: Inhibition of RIPK2 kinase activity (ADP-Glo kit). Format: biochemical. Particulars: ATP 50 μM, 27° C. 2.5 hours. The method, then:
The inhibition of RIPK2 kinase activity in vitro was determined by the following method.
The inhibition effect of the compounds of the present invention on RIPK2 kinase activity was determined by the following experimental method:
RIPK2 kinase assay kit (V4084, Promega) was used to assay enzyme activity. 2 μl of RIPK2 enzyme solution (the final concentration of enzyme in the reaction system was 0.5 ng/μL) formulated with reaction buffer (40 mM Tris pH 7.5, 20 mM MgCl2, 0.1 mg/ml BSA), 1 μl of a 3-fold gradient dilution of Compound 1 dissolved in 5% DMSO, and 2 μl of a mixed solution of ATP and MBP substrate peptide (the final concentration of ATP was 50 μM, and the final concentration of substrate was 0.2 μg/μL) were added successively to a 384-well plate (4514, Corning). After reaction at 27° C. for 2.5 hours, 5 μl of ADP-Glo solution in the kit was added to each well, then the plate was placed at 27° C. for 40 minutes. 10 μl of kinase assay reagent was then added to each well, then the plate was placed at 27° C. for 30 minutes. The chemiluminescence signal values were measured with a Victor 3 (PerkinElmer) multi-function microplate reader. The IC50 values of the compounds for enzyme inhibition were calculated using Graphpad prism software based on each concentration of the compound and the corresponding signal value thereof.

In data set [2] the test system is murine melanoma cell B16-F1 xenograft. The data set can be described thus: Therapeutic effect on B16-F1 xenograft C57 mice. Format: in vivo. The method, then: Evaluation of the inhibition effect of the compound of Example 1 on the growth of murine melanoma cell B16-F1 xenograft on C57 mice.
Compound 1 was formulated into a 5 mg/ml aqueous solution using 0.5% CMC-Na+0.25% (v/v) Polysorbate 80. The administration concentration was 50 mg/kg, and the oral volume for intragastrical administration was 10 ml/kg.
Female C57BL/6J mice for laboratory use were purchased from SINO-BRITISH SIPPR/BK LAB. ANIMAL LTD., CO (Shanghai, China, Certificate No.: SCXK (Shanghai) 2008-0016), and the body weight of mice was from 16 to 20 g when purchased. After the animals were purchased, the test was started after 3 days of adaptive feeding. Feeding conditions: SPF grade. Animal feeding method: 12/12 hours light/dark cycle, temperature 23±1° C., humidity 40-50%, the animals were fed with standard sterilized murine feed, and had free access to food and water.
The C57 mice after adaptive feeding were fasted overnight in a metabolic cage, and divided randomly into the following groups after weighing: blank control group and Compound 1 group, 10 mice per group. The skin preparation on the right flank of C57 mice was carried out one day in advance, B16-F1 cells were subcutaneously inoculated ([…] cells per mouse), and administration was started on the third day after inoculation. Each mouse was intragastrically administrated with Compound 1 (i.g., 10 ml/kg) twice a day, and the blank group was intragastrically administrated with the corresponding solvent. The tumor volume was measured twice a week, the body weight was weighed and the data were recorded.
Excel statistical software was used: the average value was calculated by avg; the SD value was calculated by STDEV; the SEM value was calculated as STDEV/SQRT: the difference between the groups P value was calculated by TTEST.
The calculation formula of tumor volume (V) is: V=½×Llength×Lshort^2
Tumor inhibition rate (%)==(C−T)/C (%)
Wherein V0 and VT are the tumor volumes at the beginning of the test and at the end of the test, respectively. C and T are the average tumor volumes of the Blank group and the test group at the end of the test, respectively.

The structures appear in SMILES notation.

RIPK2 kinase, sequence (O43353 whole entry): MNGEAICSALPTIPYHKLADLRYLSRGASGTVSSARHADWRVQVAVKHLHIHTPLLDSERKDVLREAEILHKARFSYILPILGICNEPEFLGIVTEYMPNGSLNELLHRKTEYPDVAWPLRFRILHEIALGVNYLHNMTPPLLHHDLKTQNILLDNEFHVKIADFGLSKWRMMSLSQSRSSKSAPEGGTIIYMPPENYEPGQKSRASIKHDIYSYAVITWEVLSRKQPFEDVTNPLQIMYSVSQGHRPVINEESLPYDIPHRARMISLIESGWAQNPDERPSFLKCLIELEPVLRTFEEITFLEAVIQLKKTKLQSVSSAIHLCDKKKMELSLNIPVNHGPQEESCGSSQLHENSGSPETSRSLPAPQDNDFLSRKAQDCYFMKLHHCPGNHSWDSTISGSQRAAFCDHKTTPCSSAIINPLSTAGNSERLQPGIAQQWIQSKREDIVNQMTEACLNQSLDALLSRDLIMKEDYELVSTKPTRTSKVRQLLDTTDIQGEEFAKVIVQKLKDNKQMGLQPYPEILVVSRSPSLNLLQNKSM

With `Cc1cccc(-c2nn(C3CCC3)cc2-c2ccnc(-c3ccc(S(C)(=O)=O)cc3)c2)n1` [Example 1, 4-(1-Cyclobutyl-3-(6-methylpyridin-2-yl)-1H-pyrazol-4-yl)-2-(4-(methylsulfonyl)phenyl)pyridine], it took 1.2 µM to reach half-maximal inhibition in data set [1] (IC50). Moreover, in data set [2] (50 mg/kg i.g. twice a day), the “Effect on the body weight of the mice” value is “no effect”. For the same compound, the “Tumor volume compared with the blank control group” value in data set [2] (Day 19, 50 mg/kg i.g. twice a day) is reported as “significantly smaller”. Further, the “Average tumor volume d0” value in data set [2] (d0, 50 mg/kg po bid/20d) is recorded as 0.00 mm^3. Also, the “Average tumor volume d22” value in data set [2] (d22, 50 mg/kg po bid/20d) was 301.53 mm^3.
